According to patent publication US11214803B2, “Modulators of YAP1 expression” (Ionis Pharmaceuticals, Inc., priority 2019, dated 2022):

Key:
[1] = Cynomolgus monkey tolerability, coagulation (Example 34); format: in vivo; settings: cynomolgus monkeys, 35 mg/kg subcutaneously, day 44
Procedure: To evaluate effect of Ionis modified oligonucleotides on coagulation in cynomolgus monkeys, blood samples of approximately 0.9 mL were collected from each of the available study animals on day 44. The samples were collected in tubes containing 3.2% sodium citrate. Coagulation parameters tested include Activated partial thromboplastin time (APTT), prothrombin time (PT) and Figrinogen (FIB).

[2] = rat, in vivo, sc, 50 mg/kg
Procedure: Male Sprague-Dawley rats were maintained on a 12-hour light/dark cycle and fed ad libitum with Purina normal rat chow. Groups of 4 Sprague-Dawley rats each were weekly injected subcutaneously with 50 mg/kg of Ionis oligonucleotide for 6 weeks (total 7 doses). Forty-eight hours after the last dose, the rats were euthanized; and organs, urine and plasma were harvested for further analysis.
To evaluate the effect of Ionis oligonucleotides on kidney function, urinary levels of total protein and creatinine were measured using an automated clinical chemistry analyzer (Hitachi Olympus AU400c, Melville, N.Y.).

[3] = system: Yap1 mRNA; assay: Inhibition of human Yap1 mRNA in epidermoid carcinoma A-431 xenograft tumors (Example 27); format: in vivo; settings: A-431 xenografts in NCr-Foxn1nu mice, 6-8 hours post final dose, relative to PBS
Procedure: An epidermoid carcinoma A-431 xenograft tumor model was used to evaluate activity of modified oligonucleotides targeted to human Yap1. Five million A-431 cells in 30% matrigel were implanted subcutaneously into the flanks of female NCr-Foxn1nu mice (from Taconic) at 4-6 weeks of age. When tumors reached an average volume of 40 mm^3, approximately two weeks post-implantation, groups of four mice each were administered at either 25 mg/kg or 50 mg/kg daily with modified oligonucleotides for […] (5 doses). Tumors were collected 6-8 hours post final dose and tested for Yap1 mRNA knockdown by RT-qPCR. Yap1 mRNA levels were measured as previously described using the Human Yap1 primer-probe set RTS4814. Yap1 mRNA levels were normalized to actin-beta content, as measured by primer probe set RTS5002. Results are presented in the tables below as percent control of the amount of Yap1 mRNA relative to PBS treated animals (% control).

[4] = Cynomolgus monkey tolerability, body and organ weight measurements (Example 34); format: in vivo; settings: cynomolgus monkeys, 35 mg/kg subcutaneously; for Heart weight / Kidney weight / Liver with gallbladder weight / Spleen weight: necropsy; for Terminal Body Weight: prior to necropsy
Method in brief: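 Monkeys given modified oligonucleotides, observed twice daily, and euthanized on day 86, about 48 h after the last dose. Terminal body weight taken before necropsy; organ weights measured.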

[5] = Cynomolgus monkey tolerability, kidney and liver function markers (Example 34); settings: cynomolgus monkeys, 35 mg/kg subcutaneously, day 44
[6] = system: Yap1 mRNA; assay: Dose-dependent inhibition of human Yap1 in A-431 cells (Example 24, 11,000 cells per well, RTS36584, normalized to GAPDH); format: cell-based; settings: free uptake, 48 hours; for Yap1 mRNA, % UTC: RTS36584, normalized to GAPDH; for IC50: linear regression on a log/linear plot
Procedure: Modified oligonucleotides described in the studies above were tested at various doses in A-431 cells. Cultured A-431 cells at a density of 11,000 cells per well were treated using free uptake with modified oligonucleotides diluted to concentrations described in the tables below. After approximately 48 hours, Yap1 mRNA levels were measured as previously described using the Human Yap1 primer-probe set RTS36584. Yap1 mRNA levels were normalized to GAPDH content, as measured by primer probe set RTS104 (forward sequence […], designated herein as SEQ ID NO.: 17; reverse sequence […], designated herein as SEQ ID NO.: 18; probe sequence […], designated herein as SEQ ID NO.: 19). Results are presented in the tables below as percent control of the amount of Yap1 mRNA relative to untreated control cells (% UTC). IC50s were calculated using a linear regression on a log/linear plot of the data in excel.

[7] = Tolerability in Sprague-Dawley rats, plasma chemistry markers (Example 22); format: in vivo; settings: male Sprague-Dawley rats, 50 mg/kg s.c. weekly for 6 weeks (7 doses), 48 hours after last dose
Procedure: Sprague-Dawley rats are a multipurpose model used for safety and efficacy evaluations. The rats were treated with Ionis modified oligonucleotides from the studies described in the Examples above and evaluated for changes in the levels of various plasma chemistry markers.

[8] = system: Yap1 mRNA; assay: Inhibition of human Yap1 mRNA in squamous cell carcinoma CAL27 xenograft tumors (Example 28); format: in vivo; settings: CAL27 xenografts in NCr-Foxn1nu mice, relative to PBS treated
Procedure: A squamous cell carcinoma CAL27 xenograft tumor model was used to evaluate activity of modified oligonucleotides targeted to human Yap1. Five million CAL27 cells in 30% matrigel were implanted subcutaneously into the flanks of female CrTac:NCr-Foxn1nu mice (from Taconic) at 4-6 weeks of age. Groups of four mice each were administered with either 15 mg/kg or 30 mg/kg of modified oligonucleotides daily for five days after tumor size had reached ˜100 mm^3 (about 3 weeks post implantation). Tumors were collected and tested for Yap1 mRNA knockdown by RT-qPCR. Yap1 mRNA levels were measured as previously described using the Human Yap1 primer-probe set RTS4814. Yap1 mRNA levels were normalized to actin-beta content, as measured by primer probe set RTS5002. Results are presented in the tables below as percent control of the amount of Yap1 mRNA relative to PBS treated […].

Substance	APTT [1]	FIB [1]	PT [1]	URINE P/C ratio (total protein to creatinine ratio) [2]	Yap1 mRNA in tumors, % control ([3]; 25 mpk daily (5 doses))	Yap1 mRNA in tumors, % control ([3]; 50 mpk daily (5 doses))	Heart weight [4]	Kidney weight [4]	Liver with gallbladder weight [4]	Spleen weight [4]	Terminal Body Weight [4]	ALB [5]	ALP [5]	ALT [5]	AST [5]	BUN [5]	CREA [5]	GGT [5]	GLO [5]	GLU [5]	other results
1198605 (GTAATATTGCAATCTG; modified gapmer, further chemistry not given here) [compound 1198605]	23 s	236 mg/dL	9 s	28	32 % control	30 % control	11 g	15 g	67 g	4 g	2968 g	4.0 g/dL	1445 IU/L	40 IU/L	58 IU/L	22 mg/dL	0.8 mg/dL	85 IU/L	2.7 g/dL	69 mg/dL	HDL [5]: 115 mg/dL; LDL [5]: 57 mg/dL; TBIL [5]: 0.2 mg/dL; TG [5]: 25 mg/dL; TP [5]: 6.7 g/dL; Yap1 mRNA, % UTC ([6]; 0.002 μM): 0 % UTC; Yap1 mRNA, % UTC ([6]; 0.008 μM): 2 % UTC; Yap1 mRNA, % UTC ([6]; 0.04 μM): 26 % UTC; Yap1 mRNA, % UTC ([6]; 0.2 μM): 57 % UTC; Yap1 mRNA, % UTC ([6]; 1 μM): 96 % UTC; IC50 [6]: 20 nM; ALT [7]: 46 U/L; AST [7]: 76 U/L; BUN [7]: 18 mg/dL; TBIL [7]: 0.33 mg/dL; Yap1 mRNA in tumors, % UTC ([8]; 15 mg/kg daily for five days): 65 % UTC; Yap1 mRNA in tumors, % UTC ([8]; 30 mg/kg daily for five days): 48 % UTC
1198728 (TATTAGAGTATGTGGC; modified gapmer, further chemistry not given here) [compound 1198728]	18 s	242 mg/dL	9 s	7	47 % control	39 % control	10 g	15 g	65 g	5 g	2722 g	4.1 g/dL	1165 IU/L	58 IU/L	92 IU/L	26 mg/dL	0.9 mg/dL	59 IU/L	3.2 g/dL	95 mg/dL	HDL [5]: 95 mg/dL; LDL [5]: 57 mg/dL; TBIL [5]: 0.3 mg/dL; TG [5]: 24 mg/dL; TP [5]: 7.3 g/dL; Yap1 mRNA, % UTC ([6]; 0.002 μM): 1 % UTC; Yap1 mRNA, % UTC ([6]; 0.008 μM): 4 % UTC; Yap1 mRNA, % UTC ([6]; 0.04 μM): 27 % UTC; Yap1 mRNA, % UTC ([6]; 0.2 μM): 85 % UTC; Yap1 mRNA, % UTC ([6]; 1 μM): 87 % UTC; IC50 [6]: 20 nM; ALT [7]: 54 U/L; AST [7]: 71 U/L; BUN [7]: 22 mg/dL; TBIL [7]: 0.18 mg/dL; Yap1 mRNA in tumors, % UTC ([8]; 15 mg/kg daily for five days): 77 % UTC; Yap1 mRNA in tumors, % UTC ([8]; 30 mg/kg daily for five days): 56 % UTC
